# Results taken from US10532066B2, “Surfactant lipids, compositions thereof, and uses thereof” (National Jewish Health, priority 2007, dated 2020).
# Tests used:
# [1] = test system: MAPK, IkBα and MKP-1 in differentiated U937 cells; assay: Western blot of LPS induced MAPK and IkBα phosphorylation and MKP-1 expression; format: cell-based, human; conditions: LPS 10 ng/ml, liposomes 200 μg/ml
# Description: FIG. 4. POPG inhibits LPS induced MAPK and IkBα phosphorylation and MKP-1 expression. POPG liposomes (200 μg/ml) were added to monolayer cultures of differentiated U937 cells that received either no treatment or 10 ng/ml LPS. After incubating for the indicated time, cells were lysed using lysis buffer containing detergent, protease inhibitors and phosphatase inhibitors. Aliquots with 15 μg of protein from lysates were separated by SDS-PAGE and transferred onto nitrocellulose membranes. The amount of phosphorylation was detected using phospho-specific antibodies to p38MAPK, p42/p44 ERK, p46-p54 INK and phosphorylated IkBα. To determine equal loading of proteins between samples, the membranes were probed with rabbit polyclonal p46 INK, p42/p44 ERK, p38MAPK and IkBα antibodies. The expression of MKP-1 was detected with a polyclonal MKP-1 antibody.
# FIG. 5. Quantification of POPG inhibition of LPS induced signaling. Western blot analysis as described in FIG. 4 was performed three or four times on separate samples and the intensity of phospho-p38, phospho-IkBα, phosphoERK, phospho JNK, phospho IkBα, total IkBα and MKP-1 was calculated using NIH Image J1.34 software.
# FIG. 6. Molecular specificity in POPG action. Liposomes composed of POPC, DPPG or POPG were added to monolayer cultures of differentiated U937 cells that received either no treatment or 10 ng/ml LPS, as indicated. After 30 or 60 min cells were lysed and 15 μg of cellular protein from cultures was separated by SDS-PAGE and transferred onto nitrocellulose membranes. Phosphorylated and nonphosphorylated proteins were detected as described in FIG. 4.
# FIG. 7. Comparative quantification of lipid dependent antagonism of LPS signaling. Western blot analysis was performed as described in FIG. 6 in three independent experiments. The intensity of the phosphorylated (p38, ERK, JNK and IkBα) and nonphosphorylated (total IkBα and MKP-1) proteins of interest was measured using NIH Image 0.1.34 software. Significance—*p<0.05, ** p<0.01.
# Monolayers of unstimulated or stimulated macrophages were lysed on ice with 250 μl of ice-cold lysis buffer [50 mM Tris.HCl, pH 8.0, containing 137 mM NaCl, 10% (vol/vol) glycerol, 1% (vol/vol) Nonidet P-40, 1 mM NaF, 10 μg/ml leupeptin, 10 μg/ml aprotinin, 2 mM Na3VO4, and 1 mM phenylmethylsulfonyl fluoride (29). Insoluble nuclear material was pelleted by centrifugation at 14,000×g for 10 min at 4° C. and the supernatants were collected. 15 μg of protein from lysates was separated by SDS-PAGE and transferred onto nitrocellulose membranes (30). The blots were then washed in Tris-Tween-buffered saline [TTBS, 20 mM Tris-HCl buffer, pH 7.6, containing 137 mM NaCl and 0.05% (vol/vol) Tween 20], blocked with 5% (wt/vol) nonfat dry milk for 1 hour, and probed according to the method described by Towbin et. al. (30) with phospho-specific antibodies to p46-p54 JNK, p42/p44 ERK, and p38MAPK, or IkBα or with a polyclonal MKP-1 or IkBα antibodies in 5% (wt/vol) BSA dissolved in TTBS. With the use of horseradish peroxidase-conjugated secondary anti-rabbit or anti-mouse antibody, bound antibodies were detected by enhanced chemiluminescence (ECL plus, Amersham Biosciences, Piscataway, N.J.). To determine loading of proteins between samples, the membranes were probed with rabbit polyclonal p46 JNK, p42/p44 ERK, and p38MAPK antibodies.
# [2] = test system: Respiratory Syncytial Virus (RSV); assay: RSV-induced cytokine production in BEAS2B cells; format: cell-based; conditions: RSV multiplicity 3, 48 h, lipid 200 ug/ml
# [3] = test system: Respiratory Syncytial Virus (RSV); assay: RSV-induced cytokine production in NHBE cells; format: cell-based; conditions: RSV multiplicity 3, 48 h, lipid 200 ug/ml
# [4] = test system: Respiratory Syncytial Virus (RSV); assay: Cytopathic effects of RSV upon BEAS2B cells (photomicrography); format: cell-based; conditions: multiplicity 3, 72 h, lipid 200 ug/ml
# Description: Monolayers of BEAS2B cells were infected with RSV at a multiplicity of 3 for 72 h. Infections were performed on cells in either the absence or the presence of POPG (200 ug/ml). The cell monolayers were photographed at a magnification of 200×. Controls consisted of no viral challenge in either the presence or absence of POPG as indicated.
# Monolayers of BEAS2B cells were infected with RSV at a multiplicity of 3 for 72 h. Infections were performed on cells in either the absence (b) or the presence (c,f) of POPG (200 ug/ml) and POPC (200 ug/ml) as indicated. Cells were photographed at a magnification of 200×. Controls (a,d,e) consisted of cell layers either not exposed to virus or exposed to POPG, and POPC in the absence of virus as indicated.
# Monolayers of BEAS2B cells were infected with RSV at a multiplicity of 0.5-1, in either the presence or absence of 200 ug/ml POPG, or 200 ug/ml POPC, as indicated.
# Monolayers of BEAS2B cells were either uninfected (CONL) or challenged with RSV at a multiplicity of 0.5/cell (RSV). Where indicated in the FIG. 44, RSV challenged cells were also treated with POPC (200 ug/ml) or POPG (200 ug/ml) liposomes; or POPG nanodiscs (nanoPOPG) at concentrations ranging from 100-300 ug/ml. Selected panels and fields are also shown at 400× magnification in FIG. 45.
# Where indicated in FIG. 46, RSV challenged cells were also treated with nanodisc forms of dipalmitoyl-phosphatidylcholine (nanoDPPC), palmitoyl-oleoyl-phosphatidylcholine (nanoPOPC), or dioleoyl-phosphatidylcholine (nanoDOPC), dipalmitoyl-phosphatidylglycerol (nanoDPPG), dimyristoyl-phosphatidylglycerol (nanoDMPG), or dioleoyl-phosphatidylglycerol (nanoDOPG). At 72 h after infection, the cultures were examined by photomicrography at a magnification of 200×.
# [5] = test system: Respiratory Syncytial Virus (RSV); assay: Cytopathic effects of RSV upon NHBE cells (photomicrography); format: cell-based; conditions: multiplicity 3, 72 h, lipid 200 ug/ml
# Description: Monolayers of NHBE cells were infected with RSV at a multiplicity of 3 for 72 h. Infections were performed on cells in either the absence or the presence of POPG (200 ug/ml). The cell monolayers were photographed at a magnification of 200×. Controls consisted of no viral challenge in either the presence or absence of POPG as indicated.
# Monolayers of NHBE cells were infected with RSV at a multiplicity of 3 for 72 h. Infections were performed on cells in either the absence (b) or the presence (c,f) of POPG (200 ug/ml) and POPC (200 ug/ml) as indicated. Cells were photographed at a magnification of 200×. Controls (a,d,e) consisted of cell layers either not exposed to virus or exposed to POPG, and POPC in the absence of virus as indicated.
# Monolayers of normal human bronchial epithelial cells were infected with RSV at a multiplicity of 0.5-1, in either the presence or absence of 200 ug/ml POPG, or 200 ug/ml POPC, as indicated.
# RSV = RSV plaque progression in Hep2 monolayers, lipid in agar overlay; format: cell-based, Respiratory Syncytial Virus (RSV); conditions: lipid in agar overlay 5 hours after virus, POPG 200-500 ug/ml, POPC 500 ug/ml, 5 days
# Description: Monolayers of Hep2 cells were subjected to RSV infection at levels that produce ca 100 plaques per well in quantitative plaque assays. The virus was incubated with the cells for 5 hours prior to agar overlay. The agar overlays contained either no additions, or POPG (200-500 ug/ml) or POPC (500 ug/ml).
# The effects of POPG upon plaque formation as shown in Panel a of FIG. 39 were quantified in 3 independent experiments and are presented in this figure. The left panel of FIG. 40 provides the numbers of definite, and minute indefinite plaques formed in the absence and presence of POPG (200-500 ug/ml) as indicated. The right panel of FIG. 40 provides the numbers of definite plaques observed in the absence and presence of either POPG or POPC (200-500 ug/ml) as indicated.
compound,measurement,setting,value
"CCCCCCCC/C=C\CCCCCCCC(=O)O[C@H](COC(=O)CCCCCCCCCCCCCCC)COP(=O)([O-])OCC[N+](C)(C)C [POPC, palmitoyl-oleoyl-phosphatidylcholine, reference compound]",LPS-induced MKP-1 expression,[1],neither POPC nor DPPG exerted a significant effect
same,"LPS-induced phosphorylation of p38, ERK, JNK and IkBα",[1]; 15-60 min,neither POPC nor DPPG exerted a significant effect
same,IL-6 production,[2],not
same,IL-6 production,[3],not
same,cytopathic effects of RSV,[4],not
same,cytopathic effects of RSV,[5],not
same,progression of RSV infection (plaques),RSV,bullseye plaques
